Measurements as given in patent publication US20240287627A1, “TEMPORALLY MULTIPLEXED IMAGING” (MASSACHUSETTS INSTITUTE OF TECHNOLOGY, priority 2023, published 2024).

B1: bFGF2: mouse basic fibroblast growth factor 2 (protein, UniProt P15655 10-154, looked up)
Fibroblast growth factor 2: PALPEDGGAAFPPGHFKDPKRLYCKNGGFFLRIHPDGRVDGVREKSDPHVKLQLQAEERGVVSIKGVCANRYLAMKEDGRLLASKCVTEECFFFERLESNNYNTYRSRKYSSWYVALKRTGQYKLGSKTGPGQKAILFLPMSAKS

Legend:
Type in all cases: cell-based
PKA = experiment: Kinase translocation reporter imaging, PKA KTR-Clover, in NIH/3T3 cells
Description: (§1) The constructs of JNKKTRrsGreenFast-E (JNKKTR is SEQ ID NO: 5), P38KTRDronpa, ERKKTRrsFastLime (ERKKTR is SEQ ID NO: 6) were built based on the original KTRs constructs JNKKTRClover (addgene plasmid 59151; JNKKTR is SEQ ID NO: 5), P38KTRmCerulean3 (addgene plasmid 59155), ERKKTRClover(addgene plasmid 59150; ERKKTR is SEQ ID NO: 6), all gift of Markus W. Covert (Regot S, et al., Cell, (2014); 157(7):1724-34). The newly developed three KTRs were then used along with PKAKTRClover (addgene plasmid […]; PKAKTR is SEQ ID NO: 7) and H2B-TagBFP to report the activities of all four kinases. H2B-TagBFP was used as a nucleus marker. NIH/3T3 cells were imaged on the same microscope and incubator system as the imaging of cell cycle phases. Cell culture media were changed to imaging media (MEM (Gibo) without phenol red with 1% FBS (Gibo)) prior to imaging. The imaging conditions (including exposure time, excitation, and emission) for KTRs were the same as those for imaging cell cycle phases as described previously. […]
(§2) Quantification of KTRs: Kinase activities reported by KTRs including CDK2 reporter and CDK4/6 reporter were quantified following the methods described previously (Regot S, et al., Cell, (2014); 157(7):1724-34). […]

JNK = experiment: Kinase translocation reporter imaging, rsGreenF-E-based JNK sensor, in NIH/3T3 cells
Description: as §1, §2

ERK = experiment: Kinase translocation reporter imaging, rsFastLime-based ERK sensor, in NIH/3T3 cells
Description: as §1, §2

P38 = experiment: Kinase translocation reporter imaging, Dronpa-based P38 sensor, in NIH/3T3 cells
Description: as §1, §2

Ca^2+ = experiment: Ca2+ imaging with NIR-GECO2G in NIH/3T3 cells (seven-signal imaging); conditions: 100 ng/ml PMA added at t=44 min (after forskolin)
Description: (§3) Simultaneous imaging of seven cell activities within single cells: The genes of the single-color KTRs were cloned into the following plasmid: CAG-JNKKTRrsGreenF-E-P2A-ERK KTRrsFastLime-IRES-PKAKTRClover-P2A-P38KTRDropna (JNKKTR is SEQ ID NO: 5 and PKAKTR is SEQ ID NO: 7). The aforementioned plasmid was then used with plasmid CAG-NIR-GECO2G (Qian Y, et al., PLoS Biol., (2020); 18(11):e3000965), plasmid CMV-Pink Flamindo (Harada K, et al., Sci Rep., (2017); 7(1):7351), and plasmid CMV-BlueCKAR (Mehta S, et al., Nat Cell Biol, (2018); 20(10):1215-25) for imaging 7 signals within individual NIH/3T3 cells. Imaging conditions for blue channel, green channel, and red channel were the same as those used in the imaging of cell cycle phases and CDKs activities. An extra channel (excitation: 637/12 nm at 9 mW/mm^2; emission: 664LP, exposure time: 100 ms) was used for imaging NIR-GECO2G. Images and movies were acquired every 2 min. 50 μM forskolin (Millipore Sigma) and 100 ng/ml Phorbol 12-myristate 13-acetate (PMA) (Millipore Sigma) were used to stimulate cells.

cAMP = cAMP imaging with Pink Flamindo in NIH/3T3 cells (seven-signal imaging); conditions: 100 ng/ml PMA added at t=44 min (after forskolin)
Description: as §3

PKC = PKC imaging with BlueCKAR in NIH/3T3 cells (seven-signal imaging); conditions: 100 ng/ml PMA added at t=44 min (after forskolin)
Description: as §3

[1] = seven-signal imaging, 100 ng/ml PMA added at t=44 min (after forskolin)
[2] = four-KTR imaging, 20 ng/ml bFGF2 at t=0 min

Row | Molecule | PKA response (PKA; [1]) | JNK response (JNK; [1]) | ERK response (ERK; [1]) | P38 response (P38; [1]) | Ca^2+ response (Ca^2+) | cAMP response (cAMP) | PKC response (PKC) | PKA KTR signal after stimulation (PKA; [2]) | JNK KTR signal after stimulation (JNK; [2]) | ERK KTR signal after stimulation (ERK; [2]) | P38 KTR signal after stimulation (P38; [2])
1 | CCCCCCCCCCCCCC(=O)O[C@@H]1[C@@H](C)[C@@]2(O)[C@@H](C=C(CO)C[C@]3(O)C(=O)C(C)=C[C@@H]23)[C@@H]2C(C)(C)[C@]12OC(C)=O [PMA, phorbol 12-myristate 13-acetate] | strong responses | strong responses | strong responses | little to no changes | little to no changes | strong responses | strong responses |  |  |  | 
2 | B1 |  |  |  |  |  |  |  | Fast onset | Fast onset | steadily increased over time | steadily increased over time
